Experimental data from patent publication US8846571B2, “Herbicidal compositions containing benzoylpyrazole compounds” (priority 2008, dated 2014).
Where two headings read alike, the source gives them in different places.

Key:
[1] = Foliar treatment pot test (Example 1), plant name misprinted as 'days after treatment'; type: in vivo; conditions: 4.0-5.0 leaf stage
From the text: (§1) When the herbicidal activity in a case where two active ingredients are combined, is larger than the simple sum of the respective herbicidal activities of the two active ingredients (the expected activity), it is called a synergistic effect. The activity expected by the combination of two active ingredients can be calculated as follows (Colby S. R., “Weed”, vol. 15, p. 20-22, 1967). E=α+β−(α×β÷100) where
(§2) Upland field soil was put into a 1/1,000,000 hectare pot, and seeds of various plants were sown. When the respective plants reached predetermined leaf stage, herbicidal compositions in predetermined amounts were diluted with water in an amount corresponding to 300 L/ha and applied for foliar treatment by a small sprayer.
(§3) Further, in accordance with the above Colby's formula, the growth inhibition rate (calculated value) was calculated. In Tables, with respect to the compound Q, Compound Nos. in Table 1 are described, and with respect to other herbicidal compounds, common names are described.

prickly sida = test: Foliar treatment pot test (Example 1), visual growth inhibition of prickly sida; type: in vivo, prickly sida (Side spinosa L.); conditions: read-out: Growth inhibition rate (%) Measured value
From the text: as §1, §2, §3

crabgrass = test: Foliar treatment pot test (Example 1), visual growth inhibition of crabgrass; type: in vivo
From the text: as §1, §2, §3

velvetleaf = test: Foliar treatment pot test (Example 1), visual growth inhibition of velvetleaf; type: in vivo, velvetleaf (Abutilon theophrasti MEDIC.)
From the text: as §1, §2, §3

various plants = test: Foliar treatment pot test (Example 1) on various plants; type: in vivo; conditions: Setaria, 336 h, fiant foxtail, 4.0-5.0 leaf stage, 14 days after treatment, read-out: Growth inhibition rate (%) of fiant foxtail, Measured value
From the text: as §1, §2, §3

[2] = 504 h, 21 days after treatment, read-out: Growth inhibition rate (%) Measured value

Work on CCNc1nc(Cl)nc(NC(C)C)n1 [Atrazine, atrazine] yielded an inhibition at 125 g/ha [1, 2] of 0%, an inhibition at 63 g/ha (prickly sida; 504 h, prickly sida 3.0-3.3 leaf stage, 21 days after treatment, 63 g/ha) of 30% and an inhibition at 125 g/ha (prickly sida; 504 h, prickly sida 3.0-3.3 leaf stage, 21 days after treatment, 125 g/ha) of 45%.
Work on COc1c(Cl)ccc(Cl)c1C(=O)O [Dicamba, dicamba] yielded an inhibition at 200 g/ha ([1]; 336 h, 14 days after treatment, 200 g/ha, read-out: Growth inhibition rate (%) Measured value) of 0%.
For N.O=C(O)CNCP(=O)(O)O [Glyphosate-ammonium, glyphosate-ammonium], the “Growth inhibition rate (%) Measured value” (crabgrass; crabgrass 5.0-5.5 leaf stage, 21 days after treatment, 100 g/ha) was 10%.
For COC(=O)c1c(Cl)nn(C)c1S(=O)(=O)NC(=O)Nc1nc(OC)cc(OC)n1 [Halofulfuron-methyl], the “Growth inhibition rate (%) of crabgrass, Measured value” (crabgrass; 5.0-5.5 leaf stage, 14 days after treatment, 20 g/ha) was 0%.
For CS(=O)(=O)c1ccc(C(=O)C2C(=O)CCCC2=O)c([N+](=O)[O-])c1 [Mesotrione], the inhibition at 15 g/ha ([1]; 504 h, 21 days after treatment, 15 g/ha, read-out: Growth inhibition rate (%) of days after treatment, Measured value) was 5%.
For CCOC(=O)OC(C)Oc1c(C(=O)c2ccc(S(C)(=O)=O)c(OCCOC)c2C)cnn1C (stereo not drawn) [NO. 2], the “Growth inhibition rate (%) Measured value” (velvetleaf; velvetleaf 4.0-4.3 leaf stage, 22 days after treatment, 3.75 g/ha) was 0%.
Molecule CCn1ncc(C(=O)c2ccc(S(C)(=O)=O)c(OCCOC)c2C)c1OC(C)OC(=O)OC (stereo not drawn) [NO. 4, 1-(1-ethyl-4-(3-(2-methoxyethoxy)-2-methyl-4-(methylsulfonyl)benzoyl)-1H-pyrazol-5-yloxy)ethyl methyl carbonate] has an inhibition at […] ([1]; 504 h, 21 days after treatment, 3.5 g/ha, read-out: Growth inhibition rate (%) of days after treatment, Measured value) of 40%, an inhibition at 7 g/ha ([1]; 504 h, 21 days after treatment, 7 g/ha, read-out: Growth inhibition rate (%) of days after treatment, Measured value) of 60% and an inhibition at 5 g/ha (crabgrass; Digitaria sanguinalis, foliar, 336 h, crabgrass 3.5-4.3 leaf stage, 14 days after treatment, 5 g/ha, read-out: Growth inhibition rate (%) Measured value) of 90%. For the same molecule, the inhibition at 15 g/ha (crabgrass; Digitaria sanguinalis, foliar, 552 h, 4.0-5.1 leaf stage, 23 days after treatment, 15 g/ha, read-out: Growth inhibition rate (%) of crabgrass, Measured value) was 85%, the inhibition at 7 g/ha (various plants; 7 g/ha) was 75% and the “Growth inhibition rate (%) of velvetleaf, Measured value” (velvetleaf; 3.0-4.0 leaf stage, 14 days after treatment, 15 g/ha) was 80%. For the same molecule, the inhibition at 15 g/ha (velvetleaf; Abutilon theophrasti, foliar, 336 h, 3.0-4.0 leaf stage, 14 days after treatment, 15 g/ha, read-out: Growth inhibition rate (%) of velvetleaf, Measured value) was 73%, the inhibition at 5 g/ha (velvetleaf; Abutilon theophrasti, foliar, 504 h, velvetleaf 3.1-3.4 leaf stage, 21 days after treatment, 5 g/ha, read-out: Growth inhibition rate (%) Measured value) was 94% and the inhibition at 15 g/ha (velvetleaf; Abutilon theophrasti, foliar, 504 h, velvetleaf 3.8-4.4 leaf stage, 21 days after treatment, 15 g/ha, read-out: Growth inhibition rate (%) Measured value) was 75%. It also gave an inhibition at 15 g/ha (velvetleaf; Abutilon theophrasti, foliar, 528 h, velvetleaf 3.3-3.8 leaf stage, 22 days after treatment, 15 g/ha, read-out: Growth inhibition rate (%) Measured value) of 89%, an inhibition at 7 g/ha (velvetleaf; Abutilon theophrasti, foliar, 552 h, 3.0-3.5 leaf stage, 23 days after treatment, 7 g/ha, read-out: Growth inhibition rate (%) of velvetleaf, Measured value) of 75% and an inhibition at 15 g/ha (velvetleaf; Abutilon theophrasti, foliar, 552 h, 3.0 to 3.5 leaf stage, 23 days after treatment, 15 g/ha, read-out: Growth inhibition rate (%) of velvetleaf, Measured value) of 93%. The inhibition at 15 g/ha (velvetleaf; Abutilon theophrasti, foliar, 576 h, 3.2-4.1 leaf stage, 24 days after treatment, 15 g/ha, read-out: Growth inhibition rate (%) of velvetleaf, Measured value) was 93% and the inhibition at 75 g/ha (prickly sida; 480 h, prickly sida 1.5-2.4 leaf stage, 20 days after treatment, 75 g/ha) was 55%.
For CCOCCN(C(=O)CCl)C(=C(C)C)c1ccccc1 [Pethoxamid, pethoxamid, reference compound], the “Growth inhibition rate (%) Measured value” (crabgrass; crabgrass 4.4-5.0 leaf stage, 13 days after treatment, 200 g/ha) was 0% and the “Growth inhibition rate (%) Measured value” (velvetleaf; velvetleat 3.3-4.2 leaf stage, 13 days after treatment, 200 g/ha) was 0%.
CCCCCCCCSC(=O)Oc1cc(Cl)nnc1-c1ccccc1 [Pyridate, pyridate, reference compound] showed an inhibition at 100 g/ha ([1]; 504 h, 21 days after treatment, 100 g/ha, read-out: Growth inhibition rate (%) of days after treatment, Measured value) of 0% and an inhibition at 100 g/ha (various plants; 100 g/ha) of 0%.
For CCc1cccc(C)c1N(C(=O)CCl)[C@@H](C)COC [S-Metolachlor, S-metolachlor], the “Growth inhibition rate (%) of crabgrass, Measured value” (crabgrass; 4.0-5.0 leaf stage, 14 days after treatment, 150 g/ha) was 0%, the “Growth inhibition rate (%) Measured value” (crabgrass; crabgrass 4.0-5.1 leaf stage, 21 days after treatment, 300 g/ha) was 0% and the “Growth inhibition rate (%) Measured value” (crabgrass; crabgrass 5.0-6.0 leaf stage, 14 days after treatment, 800 g/ha) was 0%. The “Growth inhibition rate (%) Measured value” (velvetleaf; velvetleaf 3.0-3.5 leaf stage, 21 days after treatment, 300 g/ha) was 0%.
With CCNc1nc(Cl)nc(NC(C)(C)C)n1 [Terbuthylazine, terbuthylazine] the inhibition at 250 g/ha ([1]; 192 h, 8 days after treatment, 250 g/ha, read-out: Growth inhibition rate (%) Measured value) was 10% and the inhibition at 125 g/ha [1, 2] was 0%.
In the case of COC(=O)c1sccc1S(=O)(=O)NC(=O)Nc1nc(C)nc(OC)n1 [Thifensulfuron-methyl], the inhibition at 5 g/ha ([1]; 504 h, 21 days after treatment, 5 g/ha, read-out: Growth inhibition rate (%) of days after treatment, Measured value) is reported as 0%.
